The experiment deals with T1, Pho81 (Pho81SPX-GFP; CnPho81) (Cryptococcus neoformans, UniProt J9VLD1).
T1 construct: gene CNAG_02541; full-length Pho81 (N-terminal SPX, ankyrin repeat and GDE domains) with C-terminal GFP, expressed from the GDE2 promoter in C. neoformans H99; whole cell lysate, endogenous Pho80/Pho85/Pcl6/7 present
The experiment in a line: affinity capture from cell lysate on 5-PCP-IP5-conjugated resin, anti-GFP Western blot. It counts as biochemical. The note with it: binds; resin-immobilised analog of 5-PP-IP5; Pi-conjugated resin as control; 50 mM Tris pH 7.5, 150 mM NaCl, 1 mM EDTA, 4 °C, 2 h; SPX domain lysine surface cluster. In general terms: A western blot detects proteins with antibodies after separation by electrophoresis.

Each structure is given as a SMILES string.

Turning to `O=P(O)(O)CP(=O)(O)O[C@H]1[C@H](OP(=O)(O)O)[C@@H](OP(=O)(O)O)[C@@H](OP(=O)(O)O)[C@@H](OP(=O)(O)O)[C@@H]1OP(=O)(O)O` [5-PCP-IP5], the “affinity capture from cell lysate on 5-PCP-IP5-conjugated resin, anti-GFP Wester” value is listed as “native Pho81 binds to the 5-PCP-IP5, but not to the Pi, resin”.
